Test results published in publication PMC10047490, “Novel Generation of FAP Inhibitor-Based Homodimers for Improved Application in Radiotheranostics” (Cancers, 2023).
Like-named read-outs stand apart in the source and are kept apart here.

Tests used:
[1] = biological target: T1, Human recombinant PREP (prolylendopeptidase) (Homo sapiens, UniProt P48147); test: In vitro inhibition assay (IC50), PREP, substrate N-succinyl-Gly-Pro-AMC; format: biochemical; conditions: for IC50: 250 µM N-succinyl-Gly-Pro-AMC, pH 7.4, 37 °C; for SI(PREP/FAP): selectivity index = IC50(PREP)/IC50(FAP)
T1 construct: made in house
T1 sequence (P48147 1-710): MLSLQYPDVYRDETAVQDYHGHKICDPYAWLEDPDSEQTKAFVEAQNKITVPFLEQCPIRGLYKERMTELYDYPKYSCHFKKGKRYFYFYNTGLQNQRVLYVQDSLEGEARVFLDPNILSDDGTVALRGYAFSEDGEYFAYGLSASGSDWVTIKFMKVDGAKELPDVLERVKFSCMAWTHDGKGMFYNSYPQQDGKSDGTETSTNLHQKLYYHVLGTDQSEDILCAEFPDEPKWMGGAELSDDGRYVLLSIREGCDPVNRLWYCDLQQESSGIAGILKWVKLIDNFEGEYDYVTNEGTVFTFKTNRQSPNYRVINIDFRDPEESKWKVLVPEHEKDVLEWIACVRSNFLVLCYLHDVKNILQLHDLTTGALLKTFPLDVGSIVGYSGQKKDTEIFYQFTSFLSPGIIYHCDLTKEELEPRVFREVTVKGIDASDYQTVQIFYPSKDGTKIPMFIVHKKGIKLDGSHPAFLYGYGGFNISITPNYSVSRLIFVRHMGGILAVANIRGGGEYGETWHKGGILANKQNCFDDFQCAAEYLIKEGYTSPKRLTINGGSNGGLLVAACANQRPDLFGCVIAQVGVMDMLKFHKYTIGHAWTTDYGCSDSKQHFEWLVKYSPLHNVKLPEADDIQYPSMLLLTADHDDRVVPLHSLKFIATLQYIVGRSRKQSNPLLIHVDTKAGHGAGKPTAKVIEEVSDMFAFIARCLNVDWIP
Description: (§1) rhFAP (recombinant human fibroblast activation protein), DPP8 (dipeptidyl peptidase VIII) and DPP9 (dipeptidyl peptidase IX) were expressed and purified as described previously. DPP4 (dipeptidyl peptidase IV) was purified from human seminal plasma as described previously. Human recombinant PREP (prolylendopeptidase) was expressed and purified as described before.
(§2) IC50 measurements for FAP and PREP were carried out as described before. […] For PREP, N-succinyl-Gly-Pro-AMC (Bachem) at a final concentration of 250 µM at pH 7.4 in 0.1 M K-phosphate, 1 mM EDTA, 1 mM DTT and 1 mg/mL BSA buffer was used.
(§3) All enzymatic activities were determined kinetically for 15 min at 37 °C by measuring initial velocities of AMC release (λex = 380 nm and λem = 465 nm) or pNA release (405 nm) from the substrates mentioned above with an Infinite 200 plate reader from Tecan Group Ltd. (Männedorf, Switzerland). The Magellan software was used to process the data, and data fitting was performed using a non-linear fitting model in Grafit 7.4. All IC50 measurements were carried out in triplicate with at least eight different inhibitor concentrations tested.

[2] = biological target: T2, DPP4 (dipeptidyl peptidase IV) purified from human seminal plasma (Homo sapiens, UniProt P27487); test: In vitro inhibition assay (IC50), DPP4, substrate Ala-Pro-pNA; format: biochemical; conditions: for IC50: 25 µM Ala-Pro-pNA, pH 7.4, 37 °C; for SI(DPP4/FAP): selectivity index = IC50(DPP4)/IC50(FAP)
T2 construct: DPP4 (dipeptidyl peptidase IV) was purified from human seminal plasma; from tissue; host or cells: human seminal plasma
Description: as §1, §3

[3] = biological target: T3, DPP8 (dipeptidyl peptidase VIII) (Homo sapiens, UniProt Q6V1X1); test: In vitro inhibition assay (IC50), DPP8, substrate Ala-Pro-pNA; format: biochemical; conditions: for IC50: 300 µM Ala-Pro-pNA, pH 7.4, 37 °C
T3 construct: made in house
Description: as §1, §3

[4] = biological target: T4, rhFAP (recombinant human fibroblast activation protein) (Homo sapiens, UniProt Q12884); test: In vitro inhibition assay (IC50), FAP, substrate Z-Gly-Pro-AMC; format: biochemical; conditions: for IC50 values for FAP (in words): summary statement on Table 3
T4 construct: made in house
T4 sequence (Q12884 1-760): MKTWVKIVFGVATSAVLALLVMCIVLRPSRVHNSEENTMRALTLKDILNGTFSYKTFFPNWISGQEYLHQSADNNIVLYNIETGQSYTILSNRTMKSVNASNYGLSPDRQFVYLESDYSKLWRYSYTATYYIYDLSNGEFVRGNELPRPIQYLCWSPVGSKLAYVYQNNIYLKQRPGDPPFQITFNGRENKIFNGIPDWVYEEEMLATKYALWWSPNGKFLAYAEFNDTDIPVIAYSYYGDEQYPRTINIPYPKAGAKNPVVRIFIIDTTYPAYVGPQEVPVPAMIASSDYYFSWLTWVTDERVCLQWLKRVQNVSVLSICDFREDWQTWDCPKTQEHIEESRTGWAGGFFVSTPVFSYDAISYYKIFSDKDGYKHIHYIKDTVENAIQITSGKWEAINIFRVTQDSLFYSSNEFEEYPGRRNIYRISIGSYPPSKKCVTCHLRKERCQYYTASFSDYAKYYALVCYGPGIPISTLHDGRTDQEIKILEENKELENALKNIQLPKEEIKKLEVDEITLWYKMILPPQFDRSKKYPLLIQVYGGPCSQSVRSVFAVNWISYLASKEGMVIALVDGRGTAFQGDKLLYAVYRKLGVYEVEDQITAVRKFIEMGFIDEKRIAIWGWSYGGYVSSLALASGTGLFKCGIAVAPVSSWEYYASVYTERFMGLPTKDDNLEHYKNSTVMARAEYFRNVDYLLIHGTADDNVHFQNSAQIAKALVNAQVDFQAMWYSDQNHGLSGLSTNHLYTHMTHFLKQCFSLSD
Description: as §1, §2, §3

[5] = biological target: T5, DPP9 (dipeptidyl peptidase IX) (Homo sapiens, UniProt Q86TI2); test: In vitro inhibition assay (IC50), DPP9, substrate Ala-Pro-pNA; format: biochemical; conditions: for IC50: 150 µM Ala-Pro-pNA, pH 7.4, 37 °C; for SI(DPP9/FAP): selectivity index = IC50(DPP9)/IC50(FAP)
T5 construct: made in house
Description: as §1, §3

FAP = conditions: different assay conditions; cited from earlier work
[6] = biological target: T3, DPP8 (dipeptidyl peptidase VIII); conditions: from previous works; cited from earlier work

T3 sequence (Q6V1X1 whole entry, species assumed): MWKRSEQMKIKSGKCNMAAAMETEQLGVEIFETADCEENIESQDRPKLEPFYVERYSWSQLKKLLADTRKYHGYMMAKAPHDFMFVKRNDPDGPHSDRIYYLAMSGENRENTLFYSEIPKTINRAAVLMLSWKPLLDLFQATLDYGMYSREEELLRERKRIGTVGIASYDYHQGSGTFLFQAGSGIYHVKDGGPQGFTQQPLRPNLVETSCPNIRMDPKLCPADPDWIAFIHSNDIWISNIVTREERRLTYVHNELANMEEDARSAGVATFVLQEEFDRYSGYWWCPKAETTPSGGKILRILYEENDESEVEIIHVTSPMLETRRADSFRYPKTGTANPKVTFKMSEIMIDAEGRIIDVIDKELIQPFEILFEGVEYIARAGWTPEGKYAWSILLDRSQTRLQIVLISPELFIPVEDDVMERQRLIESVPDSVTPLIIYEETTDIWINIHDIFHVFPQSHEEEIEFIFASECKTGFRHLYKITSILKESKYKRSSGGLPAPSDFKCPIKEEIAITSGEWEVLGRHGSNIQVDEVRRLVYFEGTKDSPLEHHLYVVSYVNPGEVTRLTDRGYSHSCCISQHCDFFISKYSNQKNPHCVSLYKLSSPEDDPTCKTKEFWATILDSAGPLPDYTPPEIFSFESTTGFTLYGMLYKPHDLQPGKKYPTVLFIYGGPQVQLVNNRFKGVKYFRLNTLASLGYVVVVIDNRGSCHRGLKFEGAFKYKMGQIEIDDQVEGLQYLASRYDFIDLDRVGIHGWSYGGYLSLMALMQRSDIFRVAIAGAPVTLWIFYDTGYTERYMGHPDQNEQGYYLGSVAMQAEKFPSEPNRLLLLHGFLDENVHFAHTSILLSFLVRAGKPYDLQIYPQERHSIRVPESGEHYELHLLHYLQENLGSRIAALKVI
T2 sequence (P27487 whole entry): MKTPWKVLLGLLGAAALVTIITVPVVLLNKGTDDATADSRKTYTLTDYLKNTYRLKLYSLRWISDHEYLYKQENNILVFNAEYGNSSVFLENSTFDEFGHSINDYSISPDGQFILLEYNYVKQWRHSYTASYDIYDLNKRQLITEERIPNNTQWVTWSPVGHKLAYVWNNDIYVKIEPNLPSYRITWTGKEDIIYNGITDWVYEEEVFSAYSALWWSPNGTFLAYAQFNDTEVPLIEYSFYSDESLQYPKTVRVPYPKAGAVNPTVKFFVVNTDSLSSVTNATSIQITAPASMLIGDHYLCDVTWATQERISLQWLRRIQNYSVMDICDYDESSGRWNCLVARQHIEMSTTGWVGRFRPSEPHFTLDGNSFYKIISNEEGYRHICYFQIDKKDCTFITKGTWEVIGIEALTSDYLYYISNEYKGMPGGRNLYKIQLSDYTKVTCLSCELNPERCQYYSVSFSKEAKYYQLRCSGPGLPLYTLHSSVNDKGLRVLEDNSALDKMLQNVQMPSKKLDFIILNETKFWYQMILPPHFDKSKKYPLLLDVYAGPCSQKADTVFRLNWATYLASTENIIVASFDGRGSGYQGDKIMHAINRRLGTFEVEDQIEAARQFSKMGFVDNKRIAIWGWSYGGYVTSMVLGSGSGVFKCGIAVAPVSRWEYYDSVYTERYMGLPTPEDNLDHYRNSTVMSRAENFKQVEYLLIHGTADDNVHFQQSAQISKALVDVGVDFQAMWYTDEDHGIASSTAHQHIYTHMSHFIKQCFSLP
T5 sequence (Q86TI2 whole entry, species assumed): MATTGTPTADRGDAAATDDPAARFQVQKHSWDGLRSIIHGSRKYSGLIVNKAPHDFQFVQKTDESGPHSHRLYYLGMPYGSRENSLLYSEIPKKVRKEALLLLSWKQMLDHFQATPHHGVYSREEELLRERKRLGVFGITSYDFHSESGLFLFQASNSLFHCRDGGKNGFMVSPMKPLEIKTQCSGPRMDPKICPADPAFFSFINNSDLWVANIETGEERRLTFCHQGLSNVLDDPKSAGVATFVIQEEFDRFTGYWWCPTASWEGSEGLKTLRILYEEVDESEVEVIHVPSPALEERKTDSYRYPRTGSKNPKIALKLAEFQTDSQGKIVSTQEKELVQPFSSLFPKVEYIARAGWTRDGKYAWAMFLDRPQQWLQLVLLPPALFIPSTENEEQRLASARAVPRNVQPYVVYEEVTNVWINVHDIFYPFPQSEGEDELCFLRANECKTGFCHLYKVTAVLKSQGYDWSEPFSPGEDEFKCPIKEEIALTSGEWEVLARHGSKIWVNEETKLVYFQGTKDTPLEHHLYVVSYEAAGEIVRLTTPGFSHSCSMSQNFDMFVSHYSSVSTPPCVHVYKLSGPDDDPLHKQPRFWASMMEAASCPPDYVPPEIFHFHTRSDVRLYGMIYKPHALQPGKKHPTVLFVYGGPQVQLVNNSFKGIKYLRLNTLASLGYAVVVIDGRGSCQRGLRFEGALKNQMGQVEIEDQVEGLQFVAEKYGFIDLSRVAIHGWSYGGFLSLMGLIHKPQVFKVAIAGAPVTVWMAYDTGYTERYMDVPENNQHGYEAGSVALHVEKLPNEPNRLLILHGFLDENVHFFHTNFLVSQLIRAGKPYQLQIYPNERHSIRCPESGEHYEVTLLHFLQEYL

With `N#C[C@@H]1CC(F)(F)CN1C(=O)CNC(=O)c1ccnc2ccc(OCCCCNC(=O)CC[C@H](NC(=O)CCC(C(=O)O)N3CCN(CC(=O)O)CCN(CC(=O)O)CCN(CC(=O)O)CC3)C(=O)NCCCCOc3ccc4nccc(C(=O)NCC(=O)N5CC(F)(F)C[C@H]5C#N)c4c3)cc12` (stereo partly drawn) [DOTAGA.Glu.(FAPi)2, 2,2′,2″-(10-(4-(((S)-1,5-bis((4-((4-((2-((S)-2-Cyano-4,4-difluoropyrrolidin-1-yl)-2-oxoethyl)-carbamoyl)quinolin-6-yl)oxy)butyl)amino)-1,5-dioxopentan-2-yl)amino)-1-carboxy-4-oxobutyl)-1,4,7,10-tetraazacyclododecane-1,4,7-triyl)triacetic acid] the IC50 [1] was 590 ± 100 nM, the “SI(PREP/FAP)” value [1] was 2269 and the IC50 [2] was 1190 ± 80 nM. The “SI(DPP4/FAP)” value [2] was 4577, the IC50 [3] was 29 ± 4 nM and the IC50 ([4]; 50 µM Z-Gly-Pro-AMC, pH 8.0, 37 °C, triplicate) was 0.26 ± 0.04 nM. The “IC50 values for FAP (in words)” value [4] was “subnanomolar”, the IC50 [5] was 83 ± 1.5 nM and the “SI(DPP9/FAP)” value [5] was 319.
For `N#C[C@@H]1CC(F)(F)CN1C(=O)CNC(=O)c1ccnc2c(NC(=O)CCC(=O)NCCCC[C@H](NC(=O)CCC(=O)Nc3cccc4c(C(=O)NCC(=O)N5CC(F)(F)C[C@H]5C#N)ccnc34)C(=O)NCCNC(=O)CC[C@H](C(=O)O)N3CCN(CC(=O)O)CCN(CC(=O)O)CCN(CC(=O)O)CC3)cccc12` [BiOncoFAP-DOTAGA], the IC50 (FAP) is given as 0.17 nM.
In the case of `N#C[C@@H]1CC(F)(F)CN1C(=O)CNC(=O)c1ccnc2ccccc12` [UAMC-1110], the IC50 [6] is listed as over 10000 nM.
In the case of `N#C[C@@H]1CC(F)(F)CN1C(=O)CNC(=O)c1ccnc2ccc(OCCCCNC(=O)CC[C@H](NC(=O)CN3CCN(CC(=O)O)CCN(CC(=O)O)CCN(CC(=O)O)CC3)C(=O)NCCCCOc3ccc4nccc(C(=O)NCC(=O)N5CC(F)(F)C[C@H]5C#N)c4c3)cc12` [DO3A.Glu.(FAPi)2, 2,2′,2″-(10-(2-(((S)-1,5-bis((4-((4-((2-((S)-2-Cyano-4,4-difluoropyrrolidin-1-yl)-2-oxoethyl)-carbamoyl)quinolin-6-yl)oxy)butyl)amino)-1,5-dioxopentan-2-yl)amino)-2-oxoethyl)-1,4,7,10-tetraazacyclododecane-1,4,7-triyl)triacetic acid], the IC50 [1] is reported as 1000 ± 140 nM, the “SI(PREP/FAP)” value [1] is reported as 1667 and the IC50 [2] is reported as 540 ± 60 nM. For the same compound, the “SI(DPP4/FAP)” value [2] was 900, the IC50 [3] was 1030 ± 180 nM and the “SI(DPP8/FAP)” value ([3]; selectivity index = IC50(DPP8)/IC50(FAP)) was 1717. The “IC50 values for FAP (in words)” value [4] was “subnanomolar”, the IC50 [5] was 950 ± 110 nM and the “SI(DPP9/FAP)” value [5] was 1583.
